Results as given in article PMC10322960 (European Journal of Drug Metabolism and Pharmacokinetics, 2023).
Where two headings read alike, the source gives them in different places.

Tests used:
[1] = tested on: CYP1A2; conditions: ocedurenone at 0.1, 1, or 10 μM, 72 h; inducer criterion 40%
[2] = target: CYP2C9 (Homo sapiens, UniProt P11712); test: In vitro P450 inhibition, recombinant CYP2C9; format: in vitro ADME
[3] = target: T1, OATP1B3 (Homo sapiens, UniProt Q9NPD5); test: OATP1B3 uptake substrate assay; format: in vitro ADME
T1 sequence (Q9NPD5 1-702): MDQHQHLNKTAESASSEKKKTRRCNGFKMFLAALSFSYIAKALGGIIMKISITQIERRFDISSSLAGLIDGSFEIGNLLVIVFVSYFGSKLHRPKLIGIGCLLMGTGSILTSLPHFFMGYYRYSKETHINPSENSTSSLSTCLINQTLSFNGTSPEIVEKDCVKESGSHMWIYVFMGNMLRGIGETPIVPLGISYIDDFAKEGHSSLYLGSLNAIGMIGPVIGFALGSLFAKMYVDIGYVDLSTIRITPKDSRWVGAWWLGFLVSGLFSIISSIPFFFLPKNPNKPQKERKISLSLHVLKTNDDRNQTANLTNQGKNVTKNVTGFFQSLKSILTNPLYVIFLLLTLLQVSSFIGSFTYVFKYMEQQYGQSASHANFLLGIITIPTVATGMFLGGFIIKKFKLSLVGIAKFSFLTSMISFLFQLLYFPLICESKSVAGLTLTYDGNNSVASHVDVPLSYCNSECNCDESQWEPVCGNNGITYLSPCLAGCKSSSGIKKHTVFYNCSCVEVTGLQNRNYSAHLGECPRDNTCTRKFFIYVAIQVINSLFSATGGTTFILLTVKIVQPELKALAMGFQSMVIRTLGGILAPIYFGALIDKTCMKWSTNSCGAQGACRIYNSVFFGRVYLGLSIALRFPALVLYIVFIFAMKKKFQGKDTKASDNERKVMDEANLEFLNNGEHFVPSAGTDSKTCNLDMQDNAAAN

[4] = target: CYP3A4 (Homo sapiens, UniProt P08684); format: in vitro ADME
[5] = target: MDR1 (Homo sapiens, UniProt P08183); test: MDR1 vesicular transport inhibition assay; format: in vitro ADME
[6] = target: T2, BCRP (Homo sapiens, UniProt Q9UNQ0); test: BCRP vesicular transport inhibition assay; format: in vitro ADME
T2 sequence (Q9UNQ0 1-655): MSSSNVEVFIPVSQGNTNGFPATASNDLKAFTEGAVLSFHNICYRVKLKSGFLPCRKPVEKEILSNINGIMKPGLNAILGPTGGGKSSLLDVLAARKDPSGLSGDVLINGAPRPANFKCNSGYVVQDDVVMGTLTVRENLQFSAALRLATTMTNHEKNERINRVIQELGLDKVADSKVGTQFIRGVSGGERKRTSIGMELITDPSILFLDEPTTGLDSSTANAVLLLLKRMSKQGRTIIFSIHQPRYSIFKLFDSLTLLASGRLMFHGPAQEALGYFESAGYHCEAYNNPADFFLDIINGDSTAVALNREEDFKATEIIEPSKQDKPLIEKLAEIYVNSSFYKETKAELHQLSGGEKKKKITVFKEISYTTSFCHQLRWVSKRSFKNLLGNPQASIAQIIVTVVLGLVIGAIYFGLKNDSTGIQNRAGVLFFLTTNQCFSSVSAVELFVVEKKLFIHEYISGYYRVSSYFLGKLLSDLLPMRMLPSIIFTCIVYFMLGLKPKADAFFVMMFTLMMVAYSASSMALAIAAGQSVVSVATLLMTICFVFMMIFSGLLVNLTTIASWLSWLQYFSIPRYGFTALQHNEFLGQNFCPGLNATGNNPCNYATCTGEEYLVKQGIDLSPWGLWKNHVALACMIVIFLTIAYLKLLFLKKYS

[7] = target: T3, MATE1 (Homo sapiens, UniProt Q96FL8); test: MATE1 uptake inhibition assay; format: in vitro ADME
T3 sequence (Q96FL8 1-570): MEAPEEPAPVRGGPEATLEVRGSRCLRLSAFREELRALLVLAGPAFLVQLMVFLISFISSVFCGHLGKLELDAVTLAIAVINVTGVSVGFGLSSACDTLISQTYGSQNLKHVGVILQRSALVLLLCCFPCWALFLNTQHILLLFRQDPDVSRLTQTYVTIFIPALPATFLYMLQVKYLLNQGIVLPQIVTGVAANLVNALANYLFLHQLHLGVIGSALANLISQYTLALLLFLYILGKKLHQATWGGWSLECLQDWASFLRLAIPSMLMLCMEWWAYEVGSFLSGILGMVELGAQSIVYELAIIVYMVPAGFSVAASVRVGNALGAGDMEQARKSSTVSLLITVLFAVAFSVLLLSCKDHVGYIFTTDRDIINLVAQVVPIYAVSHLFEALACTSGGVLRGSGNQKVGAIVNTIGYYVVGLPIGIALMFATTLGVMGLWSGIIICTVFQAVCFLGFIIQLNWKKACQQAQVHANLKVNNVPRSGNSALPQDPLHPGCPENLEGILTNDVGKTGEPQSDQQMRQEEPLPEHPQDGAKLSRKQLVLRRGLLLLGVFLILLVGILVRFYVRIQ

[8] = tested on: CYP1A2, CYP2A6, CYP2B6, CYP2C8, CYP2C9, CYP2C19, CYP2D6, CYP2E1, and CYP4A11; test: Recombinant CYP incubation; format: in vitro ADME, human; conditions: 3 µm ocedurenone, NADPH, 60 min
[9] = target: T2, BCRP; test: BCRP monolayer substrate assay; format: in vitro ADME
[10] = target: MATE2-K (Homo sapiens, UniProt Q86VL8); test: MATE2-K uptake inhibition assay; format: in vitro ADME; conditions: at 40 µM
[11] = target: OCT1 (Homo sapiens, UniProt O15245); test: OCT1 uptake substrate assay; format: in vitro ADME
[12] = target: T1, OATP1B3; test: OATP1B3 uptake inhibition assay; format: in vitro ADME; conditions: at 40 µM
[13] = target: T3, MATE1; test: MATE1 uptake substrate assay; format: in vitro ADME
[14] = transporter-expressing vs control cells, 0.04–40 µm
[15] = first vesicular transport run, 40 µM

Chain of CYP2C9 (P11712 whole entry): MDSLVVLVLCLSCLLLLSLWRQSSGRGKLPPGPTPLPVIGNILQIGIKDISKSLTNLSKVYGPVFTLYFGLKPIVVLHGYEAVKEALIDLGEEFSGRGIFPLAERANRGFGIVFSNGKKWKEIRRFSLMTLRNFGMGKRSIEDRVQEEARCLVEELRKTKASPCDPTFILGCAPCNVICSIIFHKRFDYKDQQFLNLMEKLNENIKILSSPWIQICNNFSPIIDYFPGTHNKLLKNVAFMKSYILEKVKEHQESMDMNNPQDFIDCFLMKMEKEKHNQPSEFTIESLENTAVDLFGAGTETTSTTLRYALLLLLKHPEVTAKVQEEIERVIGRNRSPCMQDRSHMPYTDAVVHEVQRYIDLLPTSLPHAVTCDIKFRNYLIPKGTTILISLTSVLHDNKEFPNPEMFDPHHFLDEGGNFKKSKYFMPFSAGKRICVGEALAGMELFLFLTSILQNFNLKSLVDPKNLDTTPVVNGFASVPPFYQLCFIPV
Chain of OCT1 (O15245 whole entry): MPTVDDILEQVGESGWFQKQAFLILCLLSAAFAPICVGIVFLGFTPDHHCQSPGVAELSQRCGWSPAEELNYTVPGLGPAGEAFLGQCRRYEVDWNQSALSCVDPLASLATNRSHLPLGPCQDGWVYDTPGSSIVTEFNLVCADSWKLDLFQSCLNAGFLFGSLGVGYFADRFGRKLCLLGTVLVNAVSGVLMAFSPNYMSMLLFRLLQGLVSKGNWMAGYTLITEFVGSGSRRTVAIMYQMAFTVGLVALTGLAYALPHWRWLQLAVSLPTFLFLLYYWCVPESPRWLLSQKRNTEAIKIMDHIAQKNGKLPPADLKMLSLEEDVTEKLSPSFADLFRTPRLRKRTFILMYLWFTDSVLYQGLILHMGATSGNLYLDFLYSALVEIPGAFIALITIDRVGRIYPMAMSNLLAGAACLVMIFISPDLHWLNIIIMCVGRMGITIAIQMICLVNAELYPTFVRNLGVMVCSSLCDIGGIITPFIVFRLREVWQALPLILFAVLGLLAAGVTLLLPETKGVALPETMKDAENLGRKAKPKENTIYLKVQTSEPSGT
Chain of CYP3A4 (P08684 whole entry): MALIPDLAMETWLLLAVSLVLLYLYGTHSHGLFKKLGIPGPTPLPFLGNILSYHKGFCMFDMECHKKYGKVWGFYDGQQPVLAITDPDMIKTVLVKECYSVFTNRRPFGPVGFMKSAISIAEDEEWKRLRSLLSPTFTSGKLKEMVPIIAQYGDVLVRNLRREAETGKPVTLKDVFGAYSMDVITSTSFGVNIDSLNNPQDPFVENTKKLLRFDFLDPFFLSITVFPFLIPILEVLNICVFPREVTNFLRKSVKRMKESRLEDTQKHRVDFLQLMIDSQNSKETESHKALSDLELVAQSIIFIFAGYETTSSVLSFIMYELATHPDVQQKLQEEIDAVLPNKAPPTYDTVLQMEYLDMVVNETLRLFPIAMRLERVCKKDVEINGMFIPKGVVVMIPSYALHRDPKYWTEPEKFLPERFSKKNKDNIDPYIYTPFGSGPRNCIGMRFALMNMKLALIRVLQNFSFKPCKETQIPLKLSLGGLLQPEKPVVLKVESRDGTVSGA
Chain of MDR1 (P08183 whole entry): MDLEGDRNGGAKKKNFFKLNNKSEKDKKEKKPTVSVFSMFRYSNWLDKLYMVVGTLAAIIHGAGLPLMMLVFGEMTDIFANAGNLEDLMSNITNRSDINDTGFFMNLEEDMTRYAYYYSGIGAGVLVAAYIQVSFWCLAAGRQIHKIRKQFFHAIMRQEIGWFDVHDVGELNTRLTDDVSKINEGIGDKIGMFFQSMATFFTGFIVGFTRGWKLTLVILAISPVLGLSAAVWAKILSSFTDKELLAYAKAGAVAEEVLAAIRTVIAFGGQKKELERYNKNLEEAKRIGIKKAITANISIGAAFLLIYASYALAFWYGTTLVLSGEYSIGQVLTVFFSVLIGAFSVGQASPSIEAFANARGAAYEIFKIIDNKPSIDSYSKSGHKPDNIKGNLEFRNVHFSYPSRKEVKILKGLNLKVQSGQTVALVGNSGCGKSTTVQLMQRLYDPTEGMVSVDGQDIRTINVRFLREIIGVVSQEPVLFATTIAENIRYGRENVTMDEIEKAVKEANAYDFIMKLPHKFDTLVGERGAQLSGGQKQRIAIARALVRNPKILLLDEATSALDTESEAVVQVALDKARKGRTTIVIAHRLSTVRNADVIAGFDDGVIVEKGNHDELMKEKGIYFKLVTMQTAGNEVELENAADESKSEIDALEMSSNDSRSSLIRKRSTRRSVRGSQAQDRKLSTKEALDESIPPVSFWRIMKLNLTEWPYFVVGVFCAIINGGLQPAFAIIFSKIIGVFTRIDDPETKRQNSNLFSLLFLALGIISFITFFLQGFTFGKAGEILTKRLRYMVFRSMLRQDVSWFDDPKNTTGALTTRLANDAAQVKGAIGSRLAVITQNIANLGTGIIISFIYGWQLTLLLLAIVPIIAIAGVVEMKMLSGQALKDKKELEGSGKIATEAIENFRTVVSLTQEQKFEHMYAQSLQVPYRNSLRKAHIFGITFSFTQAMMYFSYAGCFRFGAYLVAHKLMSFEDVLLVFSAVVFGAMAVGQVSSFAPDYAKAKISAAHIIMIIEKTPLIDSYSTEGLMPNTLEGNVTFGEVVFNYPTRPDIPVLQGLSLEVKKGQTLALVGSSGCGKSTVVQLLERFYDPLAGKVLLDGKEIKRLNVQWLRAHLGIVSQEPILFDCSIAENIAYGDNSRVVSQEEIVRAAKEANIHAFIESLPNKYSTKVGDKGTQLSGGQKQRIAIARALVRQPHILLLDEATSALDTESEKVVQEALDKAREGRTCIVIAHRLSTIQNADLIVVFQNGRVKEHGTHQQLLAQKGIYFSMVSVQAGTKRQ
Chain of MATE2-K (Q86VL8 1-566 isoform Q86VL8-3): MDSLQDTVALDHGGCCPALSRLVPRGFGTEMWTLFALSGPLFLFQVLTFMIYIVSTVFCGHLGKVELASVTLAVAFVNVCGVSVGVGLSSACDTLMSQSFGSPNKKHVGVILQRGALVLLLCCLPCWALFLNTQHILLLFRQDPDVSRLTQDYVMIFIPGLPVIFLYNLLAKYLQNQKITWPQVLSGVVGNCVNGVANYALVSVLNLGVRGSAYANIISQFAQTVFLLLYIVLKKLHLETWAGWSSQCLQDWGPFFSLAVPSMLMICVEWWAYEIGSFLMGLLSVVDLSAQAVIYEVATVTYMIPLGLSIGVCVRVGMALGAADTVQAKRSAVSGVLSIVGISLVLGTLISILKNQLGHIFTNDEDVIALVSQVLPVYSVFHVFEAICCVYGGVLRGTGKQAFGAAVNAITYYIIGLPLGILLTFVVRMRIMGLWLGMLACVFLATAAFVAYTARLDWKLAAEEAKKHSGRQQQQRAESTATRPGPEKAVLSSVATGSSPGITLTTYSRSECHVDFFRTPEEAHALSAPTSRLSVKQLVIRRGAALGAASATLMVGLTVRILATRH

Which results are given for `N#Cc1ccc(N2N=C3c4ccc(C(=O)N5CCC(O)CC5)nc4CC[C@@H]3[C@@H]2C2CCCC2)cc1Cl` [Ocedurenone, ocedurenone]?
percent CYP1A2 induction (of positive control) [1]: lower than 40%; percent remaining activity of CYP2C9 ([2]; ocedurenone at 200 μM): 70.2%; IC50 ([2]; read-out: IC50 CYP2C9, recombinant CYP): > 200 µM; inhibition category CYP2C9 ([2]; recombinant enzyme): little or no inhibition; Substrate, OATP1B3 UPT [3]: not likely to be a substrate; Maximum fold accumulation, OATP1B3 UPT [3, 14]: 1.1; percent remaining activity of CYP3A4 (midazolam-based) ([4]; ocedurenone at 200 μM, midazolam probe): 70.2%; percent remaining activity of CYP3A4 (testosterone-based) ([4]; ocedurenone at 200 μM, testosterone probe): 68.1%; IC50 ([4]; read-out: IC50 CYP3A4 (midazolam-based), midazolam probe): > 200 µM; IC50 ([4]; read-out: IC50 CYP3A4 (testosterone-based), testosterone probe): > 200 µM; inhibition category CYP3A4 ([4]; recombinant enzyme): little or no inhibition; inhibition of MDR1 at 40 µM [5, 15]: 99%; IC50 ([5]; read-out: Inhibition results (IC50), MDR1 VT, probe NMQ (1 µm)): 2.5 µM; maximum inhibition of MDR1-mediated transport ([5]; repeat with 7 concentrations): 100%; inhibition of BCRP at 40 µM [6, 15]: 98%; maximum inhibition of BCRP-mediated transport ([6]; repeat with 7 concentrations, at 40 µm): 98%; maximum inhibition of MATE1-mediated probe substrate accumulation ([7]; at 40 µM): 95%; IC50 ([7]; read-out: Inhibition results (IC50), MATE1 UPT, probe metformin (10 µm), Table 1): 6.7 µM; metabolism in incubations with other recombinant CYP isoenzymes [8]: minor metabolism; Substrate, BCRP ML [9]: likely a substrate; maximum inhibition of MATE2-K-mediated probe substrate accumulation [10]: 79%; Substrate, OCT1 UPT [11]: not likely to be a substrate; Maximum fold accumulation, OCT1 UPT [11, 14]: 1.1; maximum inhibition of OATP1B3-mediated probe substrate accumulation [12]: 58%; Substrate, MATE1 UPT [13]: not likely to be a substrate; Maximum fold accumulation, MATE1 UPT [13, 14]: 1.0
